Converted amounts (≈) assume the structure as drawn. Like-named read-outs stand apart in the source and are kept apart here.
Experiments:
Assay type in all cases: cell-based
[1] = test system: Staphylococcus aureus MSSA (Newman); assay: broth microdilution MIC assay, Staphylococcus aureus MSSA (Newman); conditions: Staphylococcus aureus
[2] = test system: Bacillus subtilis (Marburg strain, ATCC6051); assay: microbe, parasite or virus in culture; conditions: ATCC6051, read-out: Antibacterial activity BS (Bacillus substilis)
[3] = test system: Staphylococcus epidermidis (PCI 1200, ATCC12228); assay: broth microdilution MIC assay, Staphylococcus epidermidis; conditions: ATCC12228, read-out: Antibacterial activity SE (Staphylococcus epidermidis)
[4] = test system: Escherichia coli TolC mutant strain ΔtoIC (K12 b3035 TolC; JW5503); conditions: MIC activity class
[5] = test system: Human hepatocytes (HepaRG cells); assay: human cytotoxicity assay in vitro (CellTiter-Glo), hepatocytes; conditions: cytotoxicity class
[6] = test system: Staphylococcus aureus MRSA (COL); assay: broth microdilution MIC assay, Staphylococcus aureus MRSA (COL); conditions: Staphylococcus aureus, MRSA

## CN(C)Cc1[nH]c(-c2ccc(-c3ccccc3C(F)(F)F)o2)nc1-c1ccccc1 [Compound 70]
[1]; 24 h, read-out: Antibacterial activity Staphylococcus aureus (MSSA)
  MIC: 20 to 50 µg/mL (≈ 48.6 to 122 µM)
[1]; read-out: Antibacterial activity MSSA (Staphylococcus aureus MSSA)
  MIC: 20 to 50 µg/mL (≈ 48.6 to 122 µM)
[2]
  MIC: 20 to 50 µg/mL (≈ 48.6 to 122 µM)
[3]
  MIC: 11 to 201 µg/mL (≈ 26.7 to 489 µM)
[4]
  Antibacterial activity EC Δ (Escherichia coli ΔtoIC): 3 (MIC100 of 3-10 μg/ml)
[5]
  cytotoxicity cell line H (hepatocytes): 3
[6]; read-out: Antibacterial activity MRSA (Staphylococcus aureus MRSA)
  MIC: 20 to 50 µg/mL (≈ 48.6 to 122 µM)
[6]; MIC100 class score, broth microdilution, 24 h, read-out: Antibacterial activity Staphylococcus aureus (MRSA)
  MIC: 20 to 50 µg/mL (≈ 48.6 to 122 µM)
